“And” between values parts separate entries of the source, which are not always exact repeats. Identical values can stand only once.

This experiment deals with 832693-133-R-J1-PDC multi-cell spheroids, viability. Nature of the experiment: Anticancer human tumor 832693-133-R-J1-PDC patient-derived head and neck squamous carcinoma cell line growth inhibition [IpAb]. The following applies: for viability, T/C: stronger effect = lower value. From the text: Combinatorial screen of targeted agents with ipatasertib and abemaciclib in multi-cell type tumor spheroids
A high-throughput screen of multi-cell type tumor spheroids was designed to identify active combinations of targeted small molecules and ipatasertib or abemaciclib. Complex spheroids include a stromal component modeled by human endothelial cells (HUVEC) and fibroblasts modeled by human mesenchymal stem cells (MSCs). The concentration ranges selected for each drug and investigational agent were based upon clinically achievable concentrations if the clinical Cmax of the agent was known.
Compounds. The drugs and investigational agents: ipatasertib (NSC767898), abemaciclib(NSC768073), selumetinib (NSC741078), trametinib (758246), adavosertib (NSC754352), everolimus (NSC733504), sapanisertib (NSC764658), vemurafenib (NSC761431), venetoclax (NSC766270), copanlisib (NSC809693), apelisib (NSC765974), palbociblib (NSC758247), vemurafenib (NSC761431), dabrafenib (NSC764134), ravoxertinib (NSC781343), BMS-387032 (NSC767048), sotorasib (NSC818433), talazoparib (NSC767125) and afursertib (NSC778305), were obtained from the National Cancer Institute (NCI) Developmental Therapeutics Program Chemical Repository. The FDA-approved anticancer drug set is available from the NCI Developmental Therapeutics Program. […] The stock solutions were prepared in dimethyl sulfoxide (DMSO, Sigma-Aldrich, St. Louis, MO, cat. D2650) at 800-fold the tested concentration and stored at -70 degrees C prior to their use. All drugs and investigational agents were tested over a range starting from a high concentration at or near the clinical Cmax and decreasing in half-log increments. If the clinical Cmax for an agent had not been determined, the highest concentration tested was 10 microM.
NCI60 Cell Culture. NCI60 cell lines were obtained from the NCI Developmental Therapeutics Program Tumor Repository. For each lot of cells, the Repository performed Applied Biosystems AmpFLSTR Identifiler testing with PCR amplification to confirm consistency with the published Identifier STR profile for each cell line. Cells were kept in continuous culture for no more than 20 passages. The optimal seeding densities for each of the cell lines at each time point assessed were determined prior to performing the concentration response studies. Briefly, the NCI60 human tumor lines were grown as monolayers in RPMI 1640 medium supplemented with 10% FBS and 2 mmol/L L-glutamine.
An additional 9 lines were from the NCI60 cell line panel including MDA-MB-231 breast carcinoma, MDA-MB-468 breast carcinoma, MCF7 breast carcinoma, Hs578T breast carcinoma, MALME-3M melanoma, SK-MEL-2 melanoma, SK-OV-3 ovarian carcinoma, DU-145 prostate carcinoma, PC-3 prostate carcinoma, all cell lines along with major genetic alterations are listed on Table 2. Pooled donor human umbilical vein endothelial cells (HUVEC, Lonza, cat. CC-2519) and human mesenchymal stem cells (hMSC, Lonza, cat. PT-2501) were purchased from Lonza (Walkersville, MD).
PDMR cell lines were grown in complete medium (DC medium): Dulbecco's modified Eagle's medium (DMEM)/F12 supplemented with 5% fetal bovine serum (FBS), 2 mM L-glutamine, 100 U/mL penicillin and 100 µg/ml streptomycin, 0.4 µg/ml hydrocortisone, 10 ng/ml epidermal growth factor (EGF) recombinant human protein, 24 µg/mL adenine, and 0.1 mg/mL primocin. During culture from frozen stock vials, PDMR cells were cultured in the same medium containing 10 µM Y-27632 (see Table 3). The PDCs were cultured in complete DMEM/F12 media without 10 microM Y-27632 dihydrochloride for at least two passages prior to the screen. The pooled donor HUVEC and hMSC were cultured in endothelial cell growth medium 2 (PromoCell, Heidelberg, Germany, cat. C-22011) and mesenchymal stem cell growth medium 2 (PromoCell, cat. C-28009), respectively. For all experiments, HUVEC and hMSC were used at passages </=5.
[…]
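Further: spheroids exposed to the drugs for one week before the viability readout.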
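Wherever viability, T/C is given: 100% = DMSO vehicle control wells.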

Broadly, the viability, T/C is the ratio of treated to control. As usually defined, the IC50 is the concentration that gives 50% inhibition. Consider `C=CC(=O)N1CCN(c2nc(=O)n(-c3c(C)ccnc3C(C)C)c3nc(-c4c(O)cccc4F)c(F)cc23)C(C)C1` (stereo unspecified), for which the viability, T/C is 105% and 95% (compound 0.0316 µM); 108% and 101% (compound 0.1 µM); 111% and 103% (compound 0.316 µM); 114% and 115% (compound 1 µM); 122% and 110% (compound 3.16 µM); 100% and 98.5% (compound 10 µM). Moreover, under “curve of compound”, the IC50 is greater than 10000 nM.

Consider `C=CCn1c(=O)c2cnc(Nc3ccc(N4CCN(C)CC4)cc3)nc2n1-c1cccc(C(C)(C)O)n1`, for which the viability, T/C is 94% and 91.3% (compound 0.0316 µM); 79.8% and 71.9% (compound 0.1 µM); 32.5% and 35.4% (compound 0.316 µM); 27% and 31.5% (compound 1 µM); 25.9% and 28.6% (compound 3.16 µM); 12.5% and 11.7% (compound 10 µM). The half-inhibitory concentration (IC50) (curve of compound) is 208 nM and 221 nM.

Turning to `CC(=O)c1c(C)c2cnc(Nc3ccc(N4CCNCC4)cn3)nc2n(C2CCCC2)c1=O`, the viability, T/C by setting is: (compound 0.000949 µM) 87.4% and 105%; (compound 0.003 µM) 87.3% and 96.4%; (compound 0.00949 µM) 79.2% and 84.6%; (compound 0.03 µM) 66.9% and 69.8%; (compound 0.0949 µM) 69.9% and 64.3%; (compound 0.3 µM) 51% and 55.9%. The IC50 (curve of compound) is greater than 300 nM.

Consider `CC(C)(C)c1cnc(CSc2cnc(NC(=O)C3CCNCC3)s2)o1`, for which the viability, T/C is 115% and 100% (compound 0.00949 µM); 127% (compound 0.03 µM); 143% and 156% (compound 0.0949 µM); 111% and 164% (compound 0.3 µM); 1.31% and 0.89% (compound 0.949 µM); 1.26% and 1.3% (compound 3 µM). The 50% inhibitory concentration (IC50) (curve of compound) was 570 nM and 626 nM.

With `CC(C)NCC(C(=O)N1CCN(c2ncnc3c2C(C)CC3O)CC1)c1ccc(Cl)cc1` (stereo unspecified), the viability, T/C runs as follows: (compound 0.1 µM) 89.5% [middle of 13 runs]; (compound 0.316 µM) 78.2% [middle of 12 runs]; (compound 1 µM) 58% [middle of 13 runs]; (compound 3.16 µM) 55.3% [middle of 13 runs]; (compound 10 µM) 58.4% [middle of 13 runs]. For the same molecule, the IC50 (compound alone, run of 05/18/2021) was > 10000 nM and 6660 nM and 1870 nM.

`CC(C)n1nc(-c2ccc3oc(N)nc3c2)c2c(N)ncnc21`: the viability, T/C was 94.6% and 91.2% (compound 0.000316 µM); 89.4% and 88.7% (compound 0.001 µM); 86.9% and 76% (compound 0.00316 µM); 76.9% and 68.7% (compound 0.01 µM); 67.5% and 60.2% (compound 0.0316 µM); 61.8% and 52.7% (compound 0.1 µM). Further, the IC50 (curve of compound) is greater than 100 nM.

For `CC1(C)CCC(CN2CCN(c3ccc(C(=O)NS(=O)(=O)c4ccc(NCC5CCOCC5)c([N+](=O)[O-])c4)c(Oc4cnc5[nH]ccc5c4)c3)CC2)=C(c2ccc(Cl)cc2)C1`, the viability, T/C runs as follows: (compound 0.0316 µM) 98.5% and 113%; (compound 0.1 µM) 98.3% and 122%; (compound 0.316 µM) 106% and 107%; (compound 1 µM) 108% and 102%; (compound 3.16 µM) 110% and 90.5%. Where the note is “curve of compound”, the IC50 was 8780 nM and 5330 nM.

Consider `CCCS(=O)(=O)Nc1ccc(F)c(C(=O)c2c[nH]c3ncc(-c4ccc(Cl)cc4)cc23)c1F`, for which the viability, T/C (compound 0.0316 µM) is 102% and 106%; the viability, T/C (compound 0.1 µM) is 107% and 108%; the viability, T/C (compound 0.316 µM) was 99.7% and 108%; the viability, T/C (compound 1 µM) was 95.7% and 90.7%; the viability, T/C (compound 3.16 µM) is 67.7% and 69.2%; the viability, T/C (compound 10 µM) was 37% and 39.9%. Besides, under “curve of compound”, the concentration for half-maximal inhibition (IC50) is 6160 nM and 6680 nM.

Take `CCN1CCN(Cc2ccc(Nc3ncc(F)c(-c4cc(F)c5nc(C)n(C(C)C)c5c4)n3)nc2)CC1`: the viability, T/C (compound 0.01 µM) is 97.5% [middle of 13 runs]; the viability, T/C (compound 0.0316 µM) is 82.1% [middle of 13 runs]; the viability, T/C (compound 0.1 µM) was 63.8% [middle of 13 runs]; the viability, T/C (compound 0.316 µM) was 57.4% [middle of 13 runs]; the viability, T/C (compound 1 µM) is 59.1% [middle of 13 runs].

Consider `COc1c(OCCCN2CCOCC2)ccc2c3n(c(=NC(=O)c4cnc(N)nc4)nc12)CCN3`, for which the viability, T/C reads like this: (compound 0.00316 µM) 93.8% and 99%; (compound 0.01 µM) 67.5% and 74.3%; (compound 0.0316 µM) 21.3% and 29.8%; (compound 0.1 µM) 9.21% and 9.49%; (compound 0.316 µM) 4.67% and 4.86%; (compound 1 µM) 4.72% and 4.34%. Moreover, the IC50 (curve of compound) is 15.5 nM and 18.8 nM.

With `Cc1nc(NC(=O)N2CCCC2C(N)=O)sc1-c1ccnc(C(C)(C)C(F)(F)F)c1` (stereo unspecified), the viability, T/C reads like this: (compound 0.0316 µM) 93.3% and 84.1%; (compound 0.1 µM) 80.6% and 87.4%; (compound 0.316 µM) 66.7% and 55.5%; (compound 1 µM) 36.9% and 39.1%; (compound 3.16 µM) 17.8% and 12.8%; (compound 10 µM) 4.84% and 2.57%. Further, the 50% inhibitory concentration (IC50) (curve of compound) is 599 nM and 533 nM.

On to `Cn1cnc2c(F)c(Nc3ccc(Br)cc3Cl)c(C(=O)NOCCO)cc21`, for which the viability, T/C was 79.6% and 64.7% (compound 0.00949 µM); 69.7% and 59.6% (compound 0.03 µM); 57.5% and 53.9% (compound 0.0949 µM); 48.1% and 43.7% (compound 0.3 µM); 38.3% and 35.9% (compound 0.949 µM); 19.1% and 15% (compound 3 µM). Under “curve of compound”, the IC50 is 241 nM and 167 nM.

For `Cn1ncc(Cl)c1-c1cc(C(=O)NC(CN)Cc2cccc(F)c2)sc1Cl` (stereo unspecified), the viability, T/C is 99.5% and 99.8% (compound 0.0316 µM); 89.4% and 102% (compound 0.1 µM); 74.4% and 79.5% (compound 0.316 µM); 73.6% and 68.3% (compound 1 µM); 85% and 86% (compound 3.16 µM); 0.3% and 0.39% (compound 10 µM). For the same molecule, the concentration for half-maximal inhibition (IC50) (curve of compound) was 5060 nM and 5130 nM.

In the case of `Cn1nccc1Nc1nccc(-c2ccn(C(CO)c3ccc(Cl)c(F)c3)c(=O)c2)n1` (stereo unspecified), the viability, T/C reads like this: (compound 0.0316 µM) 97.1% and 93.1%; (compound 0.1 µM) 77% and 82.1%; (compound 0.316 µM) 64.1% and 70.2%; (compound 1 µM) 57.1% and 65.9%; (compound 3.16 µM) 34.3% and 33.6%; (compound 10 µM) 13% and 24.2%. Besides, the IC50 (curve of compound) was 1070 nM and 1650 nM.

With `Cn1ncnc1[C@H]1c2n[nH]c(=O)c3cc(F)cc(c23)N[C@@H]1c1ccc(F)cc1`, the viability, T/C by setting is: (compound 0.000316 µM) 110% and 111%; (compound 0.001 µM) 97.9% and 109%; (compound 0.00316 µM) 98.3% and 96.9%; (compound 0.01 µM) 86.5% and 107%; (compound 0.0316 µM) 95.6% and 93.8%; (compound 0.1 µM) 86.1% and 84.1%. For the same molecule, the IC50 (curve of compound) is greater than 100 nM.

(Values after PubChem BioAssay AID2060337 (Molecular Pharmacology Branch, DTP, NCI, 2025).)
